Reference: patent US20040157911A1, “Storage-stable and bio-stable formulations of ace inhibitors, and methods for preparation thereof” (priority 1999, published 2004)
Counter-ions that a name gives are not always drawn.

Experiment: Dispersion time of enalapril maleate in alcohol/water liquids
Format: physicochemical
Conditions: for Dispersion Time: 50 g in 200 mL, 200 rpm
Protocol: Enalapril maleate (50 grams) was added to 200 mL of liquid. The liquid ranged from 100% alcohol/0% water to 0% alcohol/100% water (see Table 1). The solutions were stirred at 200 rpm at room temperature using a Lightning Mixer (General Signal Controls, Rochester, N.Y.) with the mixing blade 1 cm from the bottom of the beaker. Enalapril maleate was considered “dispersed” when all of the drug powder was wetted and had become immersed in the liquid.

## CCOC(=O)[C@H](CCc1ccccc1)N[C@@H](C)C(=O)N1CCC[C@H]1C(=O)O [enalapril maleate]
20 mg/ud in SD3A denatured alcohol (50 mg/ud), stirring at 500 rpm (preparation of Formula I)
  Time to full dispersion in alcohol: less than 10 seconds
25%/75% alcohol/water, full value 1 minute, 15 seconds (seconds in next row)
  Dispersion Time: 60 s
50%/50% alcohol/water, room temperature
  Dispersion Time: 45 s
75%/25% alcohol/water, room temperature
  Dispersion Time: 30 s
85%/15% alcohol/water, room temperature
  Dispersion Time: 28 s
100%/0% alcohol/water, room temperature
  Dispersion Time: 27 s
